What was measured:
[1] = biological target: T1, C-X-C chemokine receptor type 2 (Homo sapiens, UniProt P25025); assay type: cell membranes, CHO-K1, Membrane; conditions: cho-k1; also: in other assays of this panel Not Active means under 50% inhibition at 10 µM
T1 sequence (P25025 whole entry): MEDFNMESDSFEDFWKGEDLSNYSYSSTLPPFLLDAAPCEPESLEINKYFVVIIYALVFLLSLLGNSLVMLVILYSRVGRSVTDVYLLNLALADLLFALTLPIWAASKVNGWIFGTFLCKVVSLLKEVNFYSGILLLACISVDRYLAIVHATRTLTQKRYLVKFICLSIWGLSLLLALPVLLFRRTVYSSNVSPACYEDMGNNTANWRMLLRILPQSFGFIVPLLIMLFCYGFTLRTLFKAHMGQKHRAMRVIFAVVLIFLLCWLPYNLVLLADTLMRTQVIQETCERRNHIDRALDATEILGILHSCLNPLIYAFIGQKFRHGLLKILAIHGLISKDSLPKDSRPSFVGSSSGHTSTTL

[2] = biological target: Tyrosine-protein kinase Fyn (Homo sapiens, UniProt P06241); assay: biochemical; assay type: cell-based, Insect cells; conditions: insect cells;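 also: enzymatic inhibition of Fyn kinase activity measured with Poly(Glu:Tyr) as the phosphorylation substrate; in other assays of this panel Not Active means under 50% inhibition at 10 µM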
Tyrosine-protein kinase Fyn, sequence (P06241 whole entry): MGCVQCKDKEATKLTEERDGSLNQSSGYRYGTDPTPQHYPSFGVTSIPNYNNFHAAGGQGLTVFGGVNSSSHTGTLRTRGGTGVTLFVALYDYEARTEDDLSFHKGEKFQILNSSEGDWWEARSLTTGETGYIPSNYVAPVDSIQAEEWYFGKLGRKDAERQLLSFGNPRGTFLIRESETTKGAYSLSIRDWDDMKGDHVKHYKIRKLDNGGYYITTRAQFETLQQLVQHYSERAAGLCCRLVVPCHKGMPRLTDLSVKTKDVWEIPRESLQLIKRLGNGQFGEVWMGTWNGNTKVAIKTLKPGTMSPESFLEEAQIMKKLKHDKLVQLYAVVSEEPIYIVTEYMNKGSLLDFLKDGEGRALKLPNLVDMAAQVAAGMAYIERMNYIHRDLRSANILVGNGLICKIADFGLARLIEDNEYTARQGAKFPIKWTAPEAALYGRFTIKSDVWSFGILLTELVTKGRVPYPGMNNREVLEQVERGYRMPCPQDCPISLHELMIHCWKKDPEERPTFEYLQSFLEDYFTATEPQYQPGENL

Progesterone receptor = biological target: T2, Progesterone receptor (Bos taurus, UniProt Q690N0); assay: DRUGMATRIX: Progesterone radioligand binding (ligand: [3H] R-5020); assay type: tissue-based, Uterus; conditions: Not Active = under 50% inhibition at 10 µM
T2 sequence (Q690N0 whole entry): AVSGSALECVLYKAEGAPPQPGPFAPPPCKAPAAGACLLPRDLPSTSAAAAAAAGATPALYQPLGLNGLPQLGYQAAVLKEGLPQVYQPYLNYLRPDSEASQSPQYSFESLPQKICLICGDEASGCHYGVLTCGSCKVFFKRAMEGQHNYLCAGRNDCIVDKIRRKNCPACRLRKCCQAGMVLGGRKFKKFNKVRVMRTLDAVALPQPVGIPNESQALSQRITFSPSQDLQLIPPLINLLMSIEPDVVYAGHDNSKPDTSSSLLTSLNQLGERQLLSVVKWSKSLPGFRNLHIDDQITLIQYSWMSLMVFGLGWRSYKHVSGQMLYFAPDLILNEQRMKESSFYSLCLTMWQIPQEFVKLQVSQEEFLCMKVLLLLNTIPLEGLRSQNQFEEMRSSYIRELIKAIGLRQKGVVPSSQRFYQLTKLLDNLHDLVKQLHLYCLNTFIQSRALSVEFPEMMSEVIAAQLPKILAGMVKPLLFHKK

[3] = biological target: Receptor tyrosine-protein kinase erbB-2 (Homo sapiens, UniProt P04626); assay type: cell-based; conditions: insect cells;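 also: inhibition of HER2 kinase enzyme activity, measured with Poly(Glu:Tyr) as the phosphorylation substrate; in other assays of this panel Not Active means under 50% inhibition at 10 µM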
Cytochrome P450 2E1 = Cytochrome P450 2E1 (Homo sapiens, UniProt P05181); conditions: bti-tn-5b1-4; also: in other assays of this panel Not Active means under 50% inhibition at 10 µM
Cytochrome P450 2E1, sequence (P05181 whole entry): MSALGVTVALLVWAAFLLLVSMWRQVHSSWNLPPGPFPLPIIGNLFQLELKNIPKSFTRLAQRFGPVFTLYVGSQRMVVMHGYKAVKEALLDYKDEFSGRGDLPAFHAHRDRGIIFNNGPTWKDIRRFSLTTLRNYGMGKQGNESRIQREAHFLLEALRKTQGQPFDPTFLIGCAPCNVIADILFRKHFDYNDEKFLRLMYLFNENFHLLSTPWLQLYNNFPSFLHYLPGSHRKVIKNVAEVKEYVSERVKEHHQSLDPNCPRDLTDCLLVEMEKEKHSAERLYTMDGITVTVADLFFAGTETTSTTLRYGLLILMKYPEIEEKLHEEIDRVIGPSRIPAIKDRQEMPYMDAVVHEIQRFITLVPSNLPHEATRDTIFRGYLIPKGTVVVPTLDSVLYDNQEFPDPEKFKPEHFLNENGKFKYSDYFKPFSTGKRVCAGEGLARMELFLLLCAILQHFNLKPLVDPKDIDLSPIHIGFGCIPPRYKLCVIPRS

D(4) dopamine receptor = biological target: T3, D(4) dopamine receptor (Homo sapiens, UniProt P21917); assay: DRUGMATRIX: Dopamine D4.2 radioligand binding (ligand: [3H] Spiperone); assay type: cell membranes, CHO-K1, Membrane; conditions: cho-k1; Not Active = under 50% inhibition at 10 µM
T3 sequence (P21917 whole entry): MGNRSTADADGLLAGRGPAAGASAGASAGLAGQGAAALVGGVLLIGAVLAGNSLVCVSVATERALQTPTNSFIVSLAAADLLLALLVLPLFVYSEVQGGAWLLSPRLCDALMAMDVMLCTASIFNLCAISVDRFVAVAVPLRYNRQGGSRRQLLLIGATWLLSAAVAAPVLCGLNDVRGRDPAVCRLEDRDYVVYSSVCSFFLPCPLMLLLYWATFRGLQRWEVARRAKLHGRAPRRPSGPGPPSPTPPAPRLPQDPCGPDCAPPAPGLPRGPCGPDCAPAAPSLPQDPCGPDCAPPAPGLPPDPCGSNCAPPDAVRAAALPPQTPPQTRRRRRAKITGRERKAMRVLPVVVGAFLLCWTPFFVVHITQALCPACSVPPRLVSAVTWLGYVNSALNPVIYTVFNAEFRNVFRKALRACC

[4] = biological target: Beta-3 adrenergic receptor (Homo sapiens, UniProt P13945); assay: DRUGMATRIX: Adrenergic beta3 radioligand binding (ligand: [125I] Cyanopindolol); assay type: cell membranes, HEK293, Membrane; conditions: hek293; Not Active = under 50% inhibition at 10 µM
Beta-3 adrenergic receptor, sequence (P13945 whole entry): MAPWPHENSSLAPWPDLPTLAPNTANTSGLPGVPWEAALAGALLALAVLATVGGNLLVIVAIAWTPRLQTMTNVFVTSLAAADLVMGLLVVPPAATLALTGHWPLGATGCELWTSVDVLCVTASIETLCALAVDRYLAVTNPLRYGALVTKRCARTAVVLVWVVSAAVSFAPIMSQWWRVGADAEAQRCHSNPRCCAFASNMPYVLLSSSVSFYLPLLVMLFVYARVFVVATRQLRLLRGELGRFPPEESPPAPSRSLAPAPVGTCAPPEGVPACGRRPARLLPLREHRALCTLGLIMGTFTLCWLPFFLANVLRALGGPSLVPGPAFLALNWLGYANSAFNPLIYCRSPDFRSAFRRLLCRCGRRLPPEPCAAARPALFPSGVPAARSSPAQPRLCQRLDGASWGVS

COc1cc(/C=C/C(=O)O)ccc1O [FERULATE]
Not Active: IC50 [1] | IC50 [2] | IC50 (Progesterone receptor) | IC50 [3] | IC50 (Cytochrome P450 2E1) | Ki (Cytochrome P450 2E1) | IC50 (D(4) dopamine receptor) | IC50 [4]

CC(C)(C#N)c1cc(Cn2cncn2)cc(C(C)(C)C#N)c1 [ANASTROZOLE]
Not Active: IC50 [1] | IC50 [2] | IC50 (Progesterone receptor) | IC50 [3] | IC50 (Cytochrome P450 2E1) | Ki (Cytochrome P450 2E1) | IC50 (D(4) dopamine receptor) | IC50 [4]

COc1ccc(Cl)cc1C(=O)NCCc1ccc(S(=O)(=O)NC(=O)NC2CCCCC2)cc1 [GLYBURIDE]
Not Active: IC50 [1] | IC50 [2] | IC50 (Progesterone receptor) | IC50 [3] | IC50 (Cytochrome P450 2E1) | Ki (Cytochrome P450 2E1) | IC50 (D(4) dopamine receptor) | IC50 [4]

CC(C)NCC(O)COc1ccc(CC(N)=O)cc1 (configuration not stated) [ATENOLOL]
Not Active: IC50 [1] | IC50 [2] | IC50 (Progesterone receptor) | IC50 [3] | IC50 (Cytochrome P450 2E1) | Ki (Cytochrome P450 2E1) | IC50 (D(4) dopamine receptor) | IC50 [4]

O=C(O)COC(=O)Cc1ccccc1Nc1c(Cl)cccc1Cl [ACECLOFENAC]
Not Active: IC50 [1] | IC50 [2] | IC50 (Progesterone receptor) | IC50 [3] | IC50 (Cytochrome P450 2E1) | Ki (Cytochrome P450 2E1) | IC50 (D(4) dopamine receptor) | IC50 [4]

Cl.NC[C@H]1CC[C@H](C(=O)Oc2ccc(CCC(=O)O)cc2)CC1 [CETRAXATE HYDROCHLORIDE]
Not Active: IC50 [1] | IC50 [2] | IC50 (Progesterone receptor) | IC50 [3] | IC50 (Cytochrome P450 2E1) | Ki (Cytochrome P450 2E1) | IC50 (D(4) dopamine receptor) | IC50 [4]

CC(=O)[C@]1(O)Cc2c(O)c3c(c(O)c2[C@@H](O[C@H]2C[C@H](N)[C@H](O)[C@H](C)O2)C1)C(=O)c1ccccc1C3=O [IDARUBICIN]
Not Active: IC50 [1] | IC50 [2] | IC50 (Progesterone receptor) | IC50 [3] | IC50 (Cytochrome P450 2E1) | Ki (Cytochrome P450 2E1) | IC50 (D(4) dopamine receptor) | IC50 [4]

C[C@@H]1[C@H](O)[C@@H](C)/C=C/C=C/C=C/C=C/C=C/C=C/C=C/[C@H](O[C@@H]2O[C@H](C)[C@@H](O)[C@H](N)[C@@H]2O)C[C@@H]2O[C@](O)(C[C@@H](O)C[C@@H](O)[C@H](O)CC[C@@H](O)C[C@@H](O)CC(=O)O[C@H]1C)C[C@H](O)[C@H]2C(=O)O [AMPHOTERICIN B]
Not Active: IC50 [1] | IC50 [2] | IC50 (Progesterone receptor) | IC50 [3] | IC50 (Cytochrome P450 2E1) | Ki (Cytochrome P450 2E1) | IC50 (D(4) dopamine receptor) | IC50 [4]

O=C(O)c1ccccc1 [BENZOIC ACID]
Not Active: IC50 [1] | IC50 [2] | IC50 (Progesterone receptor) | IC50 [3] | IC50 (Cytochrome P450 2E1) | Ki (Cytochrome P450 2E1) | IC50 (D(4) dopamine receptor) | IC50 [4]

C[C@]12CC[C@@H](O)C[C@@H]1CC[C@@H]1[C@@H]2CC[C@]2(C)C(=O)CC[C@@H]12 [ANDROSTERONE]
Not Active: IC50 [1] | IC50 [2] | IC50 (Progesterone receptor) | IC50 [3] | IC50 (Cytochrome P450 2E1) | Ki (Cytochrome P450 2E1) | IC50 (D(4) dopamine receptor) | IC50 [4]

NCC(CC(=O)O)c1ccc(Cl)cc1 (configuration not stated) [BACLOFEN]
Not Active: IC50 [1] | IC50 [2] | IC50 (Progesterone receptor) | IC50 [3] | IC50 (Cytochrome P450 2E1) | Ki (Cytochrome P450 2E1) | IC50 (D(4) dopamine receptor) | IC50 [4]

O=C(O)CO [GLYCOLIC ACID]
Not Active: IC50 [1] | IC50 [2] | IC50 (Progesterone receptor) | IC50 [3] | IC50 (Cytochrome P450 2E1) | Ki (Cytochrome P450 2E1) | IC50 (D(4) dopamine receptor) | IC50 [4]

COc1ccccc1OCCNCC(O)COc1cccc2[nH]c3ccccc3c12 (configuration not stated) [CARVEDILOL]
Not Active: IC50 [1] | IC50 [2] | IC50 (Progesterone receptor) | IC50 [3] | IC50 (Cytochrome P450 2E1) | Ki (Cytochrome P450 2E1) | IC50 (D(4) dopamine receptor)

O=C(NCCN1CCOCC1)c1ccc(Cl)cc1 [MOCLOBEMIDE]
Not Active: IC50 [1] | IC50 [2] | IC50 (Progesterone receptor) | IC50 [3] | IC50 (Cytochrome P450 2E1) | Ki (Cytochrome P450 2E1) | IC50 (D(4) dopamine receptor) | IC50 [4]

C=CCO [ALLYL ALCOHOL]
Not Active: IC50 [1] | IC50 [2] | IC50 (Progesterone receptor) | IC50 [3] | IC50 (Cytochrome P450 2E1) | Ki (Cytochrome P450 2E1) | IC50 (D(4) dopamine receptor) | IC50 [4]

CC(C)Cc1ccc([C@H](C)C(=O)O)cc1 [DEXIBUPROFEN]
Not Active: IC50 [1] | IC50 [2] | IC50 (Progesterone receptor) | IC50 [3] | IC50 (Cytochrome P450 2E1) | Ki (Cytochrome P450 2E1) | IC50 (D(4) dopamine receptor) | IC50 [4]

CHROMIC CHLORIDE
Not Active: IC50 [1] | Ki [1] | IC50 (Progesterone receptor) | Ki (Progesterone receptor) | IC50 [3] | Ki [3] | IC50 (Cytochrome P450 2E1) | Ki (Cytochrome P450 2E1) | IC50 (D(4) dopamine receptor) | Ki (D(4) dopamine receptor) | IC50 [4] | Ki [4]

Oc1ccccc1 [PHENOL]
Not Active: IC50 [1] | IC50 [2] | IC50 [3] | IC50 (Cytochrome P450 2E1) | Ki (Cytochrome P450 2E1) | IC50 (D(4) dopamine receptor) | IC50 [4]

O=C(O)CNCP(=O)(O)O [GLYPHOSATE]
Not Active: IC50 [1] | IC50 [2] | IC50 (Progesterone receptor) | IC50 [3] | IC50 (D(4) dopamine receptor) | IC50 [4]

— ChEMBL document CHEMBL1909046, “DrugMatrix in vitro pharmacology data”
